Results from patent US12440496B2, “Natriuretic peptide receptor a agonists useful for the treatment of cardiometabolic diseases, kidney disease and diabetes” (Merck Sharp & Dohme LLC, priority 2019, dated 2025).

Target: T1, hNPRA (Homo sapiens, UniProt P16066)
T1 construct: expressed in transfected cells
T1 sequence (P16066 33-1061): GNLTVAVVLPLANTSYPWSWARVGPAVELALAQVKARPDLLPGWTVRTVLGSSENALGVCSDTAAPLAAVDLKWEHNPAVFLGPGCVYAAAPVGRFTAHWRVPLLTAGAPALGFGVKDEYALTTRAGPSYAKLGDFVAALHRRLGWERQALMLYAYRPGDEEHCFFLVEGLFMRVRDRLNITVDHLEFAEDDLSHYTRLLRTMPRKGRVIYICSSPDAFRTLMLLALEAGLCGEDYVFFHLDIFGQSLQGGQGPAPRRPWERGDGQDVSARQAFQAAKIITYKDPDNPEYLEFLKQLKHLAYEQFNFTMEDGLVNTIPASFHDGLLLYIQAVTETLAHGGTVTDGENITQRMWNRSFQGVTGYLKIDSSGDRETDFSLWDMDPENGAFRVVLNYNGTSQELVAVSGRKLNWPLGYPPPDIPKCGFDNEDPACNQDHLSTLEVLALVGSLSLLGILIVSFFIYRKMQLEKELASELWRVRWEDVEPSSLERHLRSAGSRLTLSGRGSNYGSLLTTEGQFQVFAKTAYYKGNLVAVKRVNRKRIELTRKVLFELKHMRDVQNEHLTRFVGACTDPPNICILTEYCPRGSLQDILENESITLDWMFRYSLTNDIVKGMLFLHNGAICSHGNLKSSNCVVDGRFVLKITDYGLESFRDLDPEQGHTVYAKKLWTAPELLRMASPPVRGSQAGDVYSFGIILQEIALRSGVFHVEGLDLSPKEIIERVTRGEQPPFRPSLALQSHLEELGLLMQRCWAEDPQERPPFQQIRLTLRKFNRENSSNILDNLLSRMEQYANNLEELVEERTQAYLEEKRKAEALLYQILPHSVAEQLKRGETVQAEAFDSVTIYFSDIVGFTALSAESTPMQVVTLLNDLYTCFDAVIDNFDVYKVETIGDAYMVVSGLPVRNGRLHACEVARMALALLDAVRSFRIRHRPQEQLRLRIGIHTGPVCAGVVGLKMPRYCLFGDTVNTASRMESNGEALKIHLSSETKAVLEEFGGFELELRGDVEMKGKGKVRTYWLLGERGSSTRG
Experiment: NPRA Functional Cell Assay (cGMP HTRF, NPRA HEK JumpIn stable cells)
Assay type: cell-based
Settings: cGMP production, 1 hour at 37° C., 10-point dose response
How it was run: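 cGMP HTRF read-out after 1 hour compound treatment at 37° C. of human NPRA-expressing HEK JumpIn cells, 1500 cells/well, in buffer with phosphodiesterase inhibitors IBMX and RO20 (100 uM each). Signal converted to [cGMP] by calibration curve; EC50s fitted by 4-parameter logistic; 50 nM h-ANP as positive response.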

Row | Structure (SMILES) | EC50
1 | Cc1n[nH]cc1-c1ccc([C@@H](CCN2CCC(O)CC2)NC(=O)c2nc3cc4c(nc3s2)CC[C@H](C(C)(C)C)C4)cc1 (racemic) [Example 171, rac-(7S)-7-tert-butyl-N-[rac-(1R)-3-(4-hydroxy-1-piperidyl)-1-[4-(3-methyl-1H-pyrazol-4-yl)phenyl]propyl]-5,6,7,8-tetrahydrothiazolo[5,4-b]quinoline-2-carboxamide] | 913 nM
2 | CN1CC(NC(=O)c2cccc([C@@H](CCNCC(=O)O)NC(=O)c3nc4cc5c(nc4s3)CC[C@H](C(C)(C)C)C5)c2)C1 (racemic) [Example 115, carboxymethyl-[rac-(3R)-3-[3-[(1-methylazetidin-3-yl)carbamoyl]phenyl]-3-[rac-(7S)-7-tert-butyl-5,6,7,8-tetrahydrothiazolo[5,4-b]quinoline-2-carbonyl]amino]propyl]ammonium; 2,2,2-trifluoroacetate] | 1410 nM
3 | CC(C)(C)[C@H]1CCc2nc3sc(C(=O)N[C@H](CCN4CCCC5(CC5)C4)c4ccc(-c5ccc(=O)[nH]c5)cc4)cc3cc2C1 (racemic) [Example 47, rac-(6S)-6-tert-butyl-N-[rac-(1R)-3-(5-azoniaspiro[2.5]octan-5-yl)-1-[4-(6-oxo-1H-pyridin-3-yl)phenyl]propyl]-5,6,7,8-tetrahydrothieno[2,3-b]quinoline-2-carboxamide;formate] | 674 nM
4 | CC1(CN)CN(CC[C@@H](NC(=O)c2cc3cc4c(nc3s2)CC[C@H](C(C)(C)C)C4)c2ccc(-c3ccc(=O)[nH]c3)cc2)C1 (racemic) [Example 46, [3-methyl-1-[rac-(3R)-3-[4-(6-oxo-1H-pyridin-3-yl)phenyl]-3-[[rac-(6S)-6-tert-butyl-5,6,7,8-tetrahydrothieno[2,3-b]quinoline-2-carbonyl]amino]propyl]azetidin-3-yl]methylammonium;formate] | 673 nM

Compounds with a lower EC50, results first:

Row | EC50 | Structure (SMILES)
5 | 641 nM | Cc1nn(-c2ccc([C@@H](CCN3CCC(O)CC3)NC(=O)c3nc4cc5c(nc4s3)CC[C@H](C(C)(C)C)C5)cn2)c(C)c1O (racemic) [Example 187, ammonium; 3,5-dimethyl-1-[5-[rac-(1R)-3-(4-hydroxy-1-piperidyl)-1-[[rac-(7S)-7-tert-butyl-5,6,7,8-tetrahydrothiazolo[5,4-b]quinoline-2-carbonyl]amino]propyl]-2-pyridyl]pyrazol-4-olate]
6 | 640 nM | CC(C)(C)[C@H]1CCc2nc3sc(C(=O)N[C@H](CCN4CCC(O)CC4)c4cccc(C(=O)N5CC(N)C5)c4)nc3cc2C1 (racemic) [Example 147, rac-(7S)-7-tert-butyl-N-[rac-(1R)-1-[3-(3-aminoazetidine-1-carbonyl)phenyl]-3-(4-hydroxy-1-piperidyl)propyl]-5,6,7,8-tetrahydrothiazolo[5,4-b]quinoline-2-carboxamide]
7 | 590 nM | CC(C)(C)[C@H]1CCc2nc3sc(C(=O)N[C@H](CCN4CCC(O)CC4)c4ccc(-c5ccc(=O)[nH]c5)cc4)nc3cc2C1 (racemic) [Example 164, rac-(7S)-7-tert-butyl-N-[rac-(1R)-3-(4-hydroxypiperidin-1-ium-1-yl)-1-[4-(6-hydroxy-3-pyridyl)phenyl]propyl]-5,6,7,8-tetrahydrothiazolo[5,4-b]quinoline-2-carboxamide; 2,2,2-trifluoroacetate]
8 | 303 nM | CC(C)(C)[C@H]1CCc2nc3sc(C(=O)N[C@H](CCN4CCC(O)CC4)c4ccc(-c5cn[nH]c5)nc4)nc3cc2C1 (racemic) [Example 196, rac-(7S)-7-tert-butyl-N-[rac-(1R)-3-(4-hydroxy-1-piperidyl)-1-[6-(1H-pyrazol-4-yl)-3-pyridyl]propyl]-5,6,7,8-tetrahydrothiazolo[5,4-b]quinoline-2-carboxamide]
9 | 117 nM | CC(C)(C)[C@H]1CCc2nc3sc(C(=O)N[C@H](CCN4CCC(O)CC4)c4cccc(C(=O)NC5CCNCC5)c4)nc3cc2C1 (racemic) [Example 133, rac-(7S)-7-tert-butyl-N-[rac-(1R)-3-(4-hydroxy-1-piperidyl)-1-[3-(4-piperidylcarbamoyl)phenyl]propyl]-5,6,7,8-tetrahydrothiazolo[5,4-b]quinoline-2-carboxamide]
